US20230133243A1, “CONDITIONING REGIMENS FOR IN VIVO GENE THERAPY” (Fred Hutchinson Cancer Center, priority 2020, published 2023)

How the values were obtained:
[1] = Tolerability, physical health, hematology and blood chemistry in the NHP in vivo HSC gene therapy study; set-up: species or system rhesus macaques; conditions: NHP #2, given through a gastric catheter over 5 days; day 3 after HDAd injection
From the text: NHP #1 received a donor vector containing two payload modules: i) a transposon module for random integration into host cell genomes of a human γ-globin gene operably linked with a mini-β-globin LCR, together with an MGMT^P140K selection marker operably linked with an EF1α promoter, and ii) a CRISPR/Cas9 module for CRISPR/Cas9-mediated reactivation of endogenous rhesus γ-globin expression (FIG. 8B). This combination donor vector was co-injected with a support vector that expresses an activity-enhanced Sleeping Beauty transposase (SB100x) (HDAd-SB), activity of which mediates γ-globin gene addition by integration of the transposon into host cell genomes and triggers the destruction of the CRISPR/Cas9 module thus restricting the duration of the CRISPR/Cas9 system's expression and activity (FIG. 8B). […] The vector injected into NHP #3 was similar to the NHP #1 vector but encoded rhesus γ-globin instead of human γ-globin to minimize immune responses against transgene products in the NHP (FIG. 8D).
None of the three animals had detectable anti-vector antibodies at the time of enrollment. Unexpectedly, NHP #1 acquired antibodies during quarantine (titer 1:680). NHP #1 and #3 were monitored for 6 months. […] Despite this, a set of relevant data could be collected from this animal. […]

[2] = test system: human MGMT^P140K; experiment: Anti-human MGMT^P140K immune responses under adaptive immunosuppression; format: in vivo, rhesus macaques; conditions: fully immunocompetent animals
From the text: Serum antibody (IgG and IgM) titers against recombinant human MGMT protein in NHP #3 (FIG. 18A) and NHP #1 (FIG. 18B).
To suppress adaptive immune responses, NHP #1 received daily tacrolimus/sirolimus/MMF. […] For NHP #3, it was therefore decided to administer only tacrolimus (SC) as this had been sufficient in myelo-ablated/-conditioned rhesus macaques.

[3] = test system: IL-6; experiment: Rhesus serum cytokine levels by cytometric bead array after IV HDAd5/35++ (IL-6); format: in vivo, rhesus macaques; conditions: NHPs; measured by IL-6 and/or TNF levels
From the text: FIGS. 12A-12E. […] (FIGS. 12A-12C) Serum IL-6. (FIGS. 12D, 12E) Serum TNFα.
FIG. 29. […] Serum IL-6 (pg/mL) levels are shown for NHP #4. […] Arrows indicate administration of adenoviral vector.
FIG. 31. […] Serum IL-6 (pg/mL) levels are shown for NHP #5. […] Arrows indicate administration of adenoviral vector.
Serum cytokines returned back to baseline by 24 hrs.

## C=CC[C@@H]1/C=C(\C)C[C@H](C)C[C@H](OC)[C@H]2O[C@@](O)(C(=O)C(=O)N3CCCC[C@H]3C(=O)O[C@H](/C(C)=C/[C@@H]3CC[C@@H](O)[C@H](OC)C3)[C@H](C)[C@@H](O)CC1=O)[C@H](C)C[C@@H]2OC [tacrolimus]
[1]
  outcome of overdose: had to be euthanized
[2]
  control of anti-human MGMT^P140K antibodies (and T-cell responses): did not prevent

## anakinra: engineered human IL-1 receptor antagonist (IL-1Ra), recombinant non-glycosylated protein, SEQ ID NO: 1
[3]
  innate immune response to HDAd5/35++: potent agent for suppressing in vivo immune responses
